Test results: ChEMBL document CHEMBL1126411, “Synthesis and HIV activity of phosphonate isosteres of D4T monophosphate” (Bioorg Med Chem Lett, 1992)

Test system: MT4
Assay: Concentration required for the inhibition of HIV replication by 50% in MT-4 cells
Assay type: functional, cell-based
Details: Homo sapiens

First: Cc1cn([C@H]2C=C[C@@H](CCP(=O)(O)O)O2)c(=O)[nH]c1=O
Second: Cc1cn([C@H]2C=C[C@@H](CO)O2)c(=O)[nH]c1=O [STAVUDINE]
The IC50 of the first is higher: > 1000 µM for the first, 1.2 µM for the second.

First: Cc1cn([C@H]2C=C[C@@H](OCP(=O)(O)O)O2)c(=O)[nH]c1=O
Second: Cc1cn([C@H]2C=C[C@@H](OCP(=O)(O)O)C2)c(=O)[nH]c1=O
The IC50 of the first is lower: 1.3 µM for the first, > 1000 µM for the second.
